Patent US20260078130A1, “NAMPT MODULATORS, PREPARATIONS, AND USES THEREOF” (SIRONAX LTD., priority 2022, published 2026)

How the values were obtained:
[1] = test system: endogenous NAMPT in U2OS cells; experiment: Cellular NAD+ modulation assay (NAD/NADH-Glo, U2OS cells); type: cell-based; conditions: Homo sapiens, 24 hours incubation with compound; for maximal fold induction: read-out: Cellular Emax
How it was run: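 Endogenous NAMPT stimulation in U2OS cells treated with compound dilution series for 24 h at 37 °C. Cells lysed with DTAB base, acid-treated 15 min at 60 °C, neutralized, NAD+ read by NAD/NADH-Glo luminescence after 40 min at room temperature. EC50 and Emax (fold over DMSO) derived.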

[2] = biological target: T1, human enzyme NAMPT (full length) (Homo sapiens, UniProt P43490); experiment: NMN fluorescence biochemical assay (stimulation of NMN synthesis by NAMPT); conditions: for EC50: NMN synthesis by purified human NAMPT (100 nM), concentration giving half-maximal activation, read-out: Enzymatic EC50; for Enzymatic Emax: fold change of maximal activation compared to DMSO
T1 construct: human enzyme NAMPT (full length)
T1 sequence (P43490 whole entry): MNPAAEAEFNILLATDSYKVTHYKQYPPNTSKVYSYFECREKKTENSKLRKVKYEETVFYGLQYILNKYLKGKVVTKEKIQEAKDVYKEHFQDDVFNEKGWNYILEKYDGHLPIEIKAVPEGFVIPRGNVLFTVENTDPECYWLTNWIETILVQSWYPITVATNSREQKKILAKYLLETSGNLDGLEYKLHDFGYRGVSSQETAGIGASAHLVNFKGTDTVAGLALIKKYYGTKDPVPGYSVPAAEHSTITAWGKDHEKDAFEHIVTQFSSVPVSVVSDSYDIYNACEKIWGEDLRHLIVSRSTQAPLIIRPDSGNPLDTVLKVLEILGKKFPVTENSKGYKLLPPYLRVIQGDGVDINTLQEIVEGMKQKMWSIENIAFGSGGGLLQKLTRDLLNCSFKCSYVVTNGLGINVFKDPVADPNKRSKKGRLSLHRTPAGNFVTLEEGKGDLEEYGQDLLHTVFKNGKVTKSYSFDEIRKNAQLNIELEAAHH
How it was run: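 Full-length human NAMPT (100 nM) was preincubated 15 min at 37 °C with compound in 50 mM Tris-HCl pH 7.5, 10 mM MgCl2, 2 mM DTT, then reacted 1 h at 37 °C with 50 μM NAM, 100 μM PRPP, 4 mM ATP (stated solution concentrations). NMN was derivatised with acetophenone/KOH then formic acid and read at Ex/Em 382/445 nm; EC50 and Emax (fold over DMSO) reported.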

| EC50 [1] [nM] | EC50 [2] [nM] | Enzymatic Emax [2] | Compound | maximal fold induction [1] |
| --- | --- | --- | --- | --- |
| < 500 | 500 to 5000 | A (A>3) | C#Cc1cccnc1CC1c2ccccc2C(=O)N1Cc1ccc2[nH]c(=O)oc2c1 (centres unmarked) [Compound 215, 6-((1-((3-ethynylpyridin-2-yl)methyl)-3-oxoisoindolin-2-yl)methyl)benzo[d]oxazol-2(3H)-one] | > 1.5 |
| 500 to 5000 | 500 to 5000 | A (A>3) | Cc1scnc1CC1c2ccccc2C(=O)N1Cc1ccc2[nH]c(=O)oc2c1 (centres unmarked) [Compound 217, 6-((1-((5-methylthiazol-4-yl)methyl)-3-oxoisoindolin-2-yl)methyl)benzo[d]oxazol-2(3H)-one] | > 1.5 |
| < 500 | < 500 | A (A>3) | N#Cc1ccc(Br)c(CC2c3ccccc3C(=O)N2Cc2ccc3[nH]c(=O)oc3c2)n1 (centres unmarked) [Compound 221, 5-bromo-6-((3-oxo-2-((2-oxo-2,3-dihydrobenzo[d]oxazol-6-yl)methyl)isoindolin-1-yl)methyl)picolinonitrile] | > 1.5 |
| 500 to 5000 | < 500 | A (A>3) | O=C1c2ccccc2C(Cc2ncccc2Br)N1Cc1cc2oc(=O)[nH]c2cc1F (centres unmarked) [Compound 223, 6-((1-((3-bromopyridin-2-yl)methyl)-3-oxoisoindolin-2-yl)methyl)-5-fluorobenzo[d]oxazol-2(3H)-one] | > 1.5 |
| 500 to 5000 | < 500 | A (A>3) | O=C1c2ccccc2C(Cc2ncccc2Br)N1Cc1ccc2[nH]c(=O)oc2c1F (centres unmarked) [Compound 224, 6-((1-((3-bromopyridin-2-yl)methyl)-3-oxoisoindolin-2-yl)methyl)-7-fluorobenzo[d]oxazol-2(3H)-one] | > 1.5 |
| 500 to 5000 | 500 to 5000 | A (A>3) | O=C1c2ccccc2C(CC2=CCOCC2)N1Cc1ccc2[nH]c(=O)oc2c1 (centres unmarked) [Compound 225, 6-((1-((3,6-dihydro-2H-pyran-4-yl)methyl)-3-oxoisoindolin-2-yl)methyl)benzo[d]oxazol-2(3H)-one] | > 1.5 |
| 500 to 5000 | 500 to 5000 | A (A>3) | O=C1c2ccccc2C(Cc2nnc(Cl)cc2Cl)N1Cc1ccc2[nH]c(=O)oc2c1 (centres unmarked) [Compound 227, 6-((1-((4,6-dichloropyridazin-3-yl)methyl)-3-oxoisoindolin-2-yl)methyl)benzo[d]oxazol-2(3H)-one] | > 1.5 |
| < 500 | < 500 | B (3≥B>2) | N#Cc1nccc(Cl)c1CC1c2ccccc2C(=O)N1Cc1ccc2[nH]nnc2c1 (centres unmarked) [Compound 228, 3-((2-((1H-benzo[d][1,2,3]triazol-5-yl)methyl)-3-oxoisoindolin-1-yl)methyl)-4-chloropicolinonitrile] | > 1.5 |
| 500 to 5000 | ≥ 5000 | A (A>3) | Cc1ocnc1CC1c2ccccc2C(=O)N1Cc1ccc2[nH]c(=O)oc2c1 (centres unmarked) [Compound 231, 6-((1-((5-methyloxazol-4-yl)methyl)-3-oxoisoindolin-2-yl)methyl)benzo[d]oxazol-2(3H)-one] | > 1.5 |
| < 500 | < 500 | A (A>3) | Cn1cc(Cl)c(CC2c3ccccc3C(=O)N2Cc2ccc3[nH]c(=O)oc3c2)n1 (centres unmarked) [Compound 232, 6-((1-((4-chloro-1-methyl-1H-pyrazol-3-yl)methyl)-3-oxoisoindolin-2-yl)methyl)benzo[d]oxazol-2(3H)-one] | > 1.5 |
| 500 to 5000 | ≥ 5000 | A (A>3) | Cn1cccc(CC2c3ccccc3C(=O)N2Cc2ccc3[nH]c(=O)oc3c2)c1=O (centres unmarked) [Compound 234, 6-((1-((1-methyl-2-oxo-1,2-dihydropyridin-3-yl)methyl)-3-oxoisoindolin-2-yl)methyl) benzo[d]oxazol-2(3H)-one] | > 1.5 |
| < 500 | < 500 | B (3≥B>2) | O=C1c2ccccc2C(Cc2ncccc2Br)N1Cc1ccc2[nH]ncc2c1 (centres unmarked) [Compound 240, 2-((1H-indazol-5-yl)methyl)-3-((3-bromopyridin-2-yl)methyl)isoindolin-1-one] | 1.2 to 1.5 |
| 500 to 5000 | 500 to 5000 | A (A>3) | O=C1c2ccccc2C(Cc2ncccc2Br)N1Cc1ccc2[nH]c(=O)oc2n1 (centres unmarked) [Compound 241, 5-((1-((3-bromopyridin-2-yl)methyl)-3-oxoisoindolin-2-yl)methyl)oxazolo[5,4-b]pyridin-2(1H)-one] | 1.2 to 1.5 |
| < 500 | 500 to 5000 | A (A>3) | N#Cc1cccnc1CC1c2ccccc2C(=O)N1Cc1ccc2[nH]c(=O)oc2c1 (centres unmarked) [Compound 257, 2-((3-oxo-2-((2-oxo-2,3-dihydrobenzo[d]oxazol-6-yl)methyl)isoindolin-1-yl)methyl) nicotinonitrile] | > 1.5 |
| < 500 | < 500 | A (A>3) | O=C1NCC2(CC(CN3C(=O)c4ccccc4C3Cc3ncccc3Br)C2)O1 (centres unmarked) [Compound 270, 2-((1-((3-bromopyridin-2-yl)methyl)-3-oxoisoindolin-2-yl)methyl)-5-oxa-7-azaspiro[3.4]octan-6-one] | 1.2 to 1.5 |
| 500 to 5000 | 500 to 5000 | A (A>3) | O=C1c2ccccc2C(Cc2ncccc2Br)N1Cc1cc2nn[nH]c2cc1F (centres unmarked) [Compound 271, 3-((3-bromopyridin-2-yl)methyl)-2-((6-fluoro-1H-benzo[d][1,2,3]triazol-5-yl)methyl) isoindolin-1-one] | > 1.5 |
| < 500 | 500 to 5000 | A (A>3) | Cc1cccc2c1C(Cc1c(Cl)ccnc1C#N)N(Cc1ccc3[nH]c(=O)oc3c1)C2=O (centres unmarked) [Compound 272, 4-chloro-3-((7-methyl-3-oxo-2-((2-oxo-2,3-dihydrobenzo[d]oxazol-6-yl)methyl)isoindolin-1-yl)methyl)picolinonitrile] | > 1.5 |
| 500 to 5000 | ≥ 5000 | B (3≥B>2) | CC1c2cc(F)ccc2C(=O)N1Cc1ccc2[nH]c(=O)oc2c1 (centres unmarked) [Compound 275, 6-((5-fluoro-3-methyl-1-oxoisoindolin-2-yl)methyl)benzo[d]oxazol-2(3H)-one] | > 1.5 |
| < 500 | < 500 | A (A>3) | N#Cc1ccc2c(c1)C(Cc1c(Cl)ccnc1C#N)N(Cc1ccc3[nH]c(=O)oc3c1)C2=O (centres unmarked) [Compound 276, 3-((4-chloro-2-cyanopyridin-3-yl)methyl)-1-oxo-2-((2-oxo-2,3-dihydrobenzo[d]oxazol-6-yl)methyl)isoindoline-5-carbonitrile] | > 1.5 |
| < 500 | 500 to 5000 | A (A>3) | COCCn1cc(Cl)c(CC2c3ccccc3C(=O)N2Cc2ccc3[nH]c(=O)oc3c2)n1 (centres unmarked) [Compound 277, 6-((1-((4-chloro-1-(2-methoxyethyl)-1H-pyrazol-3-yl)methyl)-3-oxoisoindolin-2-yl)methyl) benzo[d]oxazol-2(3H)-one] | > 1.5 |
